# Measurements reported in ChEMBL document CHEMBL1142592, “Additional pyrrolomycins from cultures of Streptomyces fumanus” (2005).
# Key:
# Assay type in all cases: functional
# [1] = test system: Escherichia coli; experiment: Antimicrobial activity against wild type Escherichia coli by agar dilution method
# [2] = test system: Staphylococcus aureus; experiment: Antimicrobial activity against wild type Staphylococcus aureus by agar dilution method
# [3] = test system: Staphylococcus aureus; experiment: Antimicrobial activity against methicillin-resistant Staphylococcus aureus by agar dilution method
# [4] = test system: Escherichia coli; experiment: Antimicrobial activity against permeability mutant Escherichia coli imp by agar dilution method
# [5] = test system: Enterococcus faecium; experiment: Antimicrobial activity against vancomycin-resistant Enterococcus faecium by agar dilution method
Structure (SMILES),MIC [1],MIC [2],MIC [3],MIC [4],MIC [5]
COc1c(Cl)cc(Cl)cc1[C@H](O)c1[nH]c(Cl)c(Cl)c1[N+](=O)[O-] [PYRROLOMYCIN H],128 µg/mL,1 µg/mL,2 µg/mL,4 µg/mL,–
COc1c(Cl)cc(Cl)cc1C(=O)c1[nH]c(Cl)c(Cl)c1Cl [PYRROLOMYCIN J],> 128 µg/mL,1 µg/mL,2 µg/mL,8 µg/mL,–
O=[N+]([O-])c1c([C@@H](O)c2cc(Cl)cc(Cl)c2O)[nH]c(Cl)c1Cl [PYRROLOMYCIN G],> 128 µg/mL,8 µg/mL,8 µg/mL,32 µg/mL,8 µg/mL
